{"source": "patent US20190091175A1", "about": "“METHOD OF REDUCTION […] TREATING DRAVET SYNDROME” (ZOGENIX INTERNATIONAL LIMITED, priority 2017, published 2019)", "key": {"[1]": {"test_system": "patients with Dravet syndrome", "details": "long-term fenfluramine treatment; cited from earlier work"}, "[2]": {"test_system": "subjects with Dravet syndrome", "experiment": "Study 1: Phase 3 double-blind placebo-controlled study of liquid fenfluramine formulation (ZX008) in Dravet syndrome", "assay_type": "in vivo, human", "procedure": "The first 119 subjects to be randomized in both identical studies combined were analyzed and reported as Study 1 (FIG. 1), covered by a Statistical Analysis Plan (SAP).\nPrimary and key secondary endpoints in the Study 1 SAP were pre-determined. All patients were treated twice per day over a period of 14 weeks using an oral syringe to administer the formulation. The treatment period included a two-week titration period and a 12-week maintenance period.\nThe initial results of Study 1 are outlined below. The randomized, double blind, placebo controlled, Phase 3 study enrolled 119 patients across sites in the United States, Canada, Europe and Australia. The median age of patients was 8 years, the mean age of patients was 9 years (range, 2-18 years) (FIG. 2).\nPatients were titrated to their target dose over two weeks, and then remained at that fixed dose for 12 weeks. The mean baseline convulsive seizure frequency across the study groups was approximately 40 seizures per month. 110 (92%) patients completed the study (85% 0.8 mg/kg/day; 100% 0.2 mg/kg/day; 93% placebo).\nThe mean number of convulsive seizure free days, defined as a day for which diary data are available and no convulsive seizures have been reported, was determined for each treatment group during the Baseline and T+M Periods. Using a parametric analysis, comparisons for the ZX008 groups to placebo were estimated from an ANCOVA model with treatment group (3 levels) and age group (<6 years, ≥6 years) as factors, log baseline number of convulsive seizure free days as a covariate and log convulsive seizure free days (Titration+Maintenance, or Maintenance Period) as response. The mean (SD) number of convulsive seizure free days per 28 days during the Baseline Period was 12.6 (7.68), 15.7 (6.80), and 14.6 (7.59) for the placebo, 0.2 and 0.8 mg/kg/day groups, respectively. […] The mean (SD) number of convulsive seizure free days for the 0.2 mg/kg/day group was 17.9 (8.04) days, which was numerically greater than placebo, but was not statistically significant (p=0.514). […]"}, "[3]": {"test_system": "children with refractory epilepsy", "details": "0.5 to 1 mg/kg/day; cited from earlier work"}, "[4]": {"test_system": "self-induced photosensitive seizures", "details": "four cases; cited from earlier work"}, "[5]": {"test_system": "pattern sensitivity-induced seizures", "details": "one child; cited from earlier work"}}, "data": [{"smiles": "CCNC(C)Cc1cccc(C(F)(F)F)c1", "note": "(racemic) [Fenfluramine, (RS)-N-ethyl-1-[3-(trifluoromethyl)phenyl]propan-2-amine]", "values": [{"measurement": "heart valve defects by echocardiography", "setting": "[1]", "value": "No clinically relevant defects were identified"}, {"measurement": "subjects with an adverse event leading to study termination / discontinuation", "setting": "[2]; 0.8 mg/kg/day group", "value": "Five"}, {"measurement": "tolerability", "setting": "[2]; oral, 0.2 and 0.8 mg/kg/day, 14 weeks", "value": "generally well-tolerated"}, {"measurement": "prospective cardiac safety monitoring (clinical, echocardiographic)", "setting": "[2]; throughout the study", "value": "no clinical or echocardiographic evidence of cardiac valvulopathy or pulmonary hypertension"}, {"measurement": "effect on number of seizures", "setting": "[3]", "value": "reduction in the number of seizures"}, {"measurement": "response of self-induced photosensitive seizures", "setting": "[4]", "value": "responded to treatment"}, {"measurement": "effect on self-induced seizures resistant to anticonvulsive treatment", "setting": "[5]", "value": "successfully terminated these self-induced seizures"}]}]}
